Results taken from ChEMBL document CHEMBL3044815, “Inhibitory effects on nuclear factor B of the Vietnamese freshwater cyanobacteria” (Med Chem Res, 2011).

Key:
[1] = test system: HeLa; assay: Cytotoxicity against Homo sapiens (human) HeLa cells after 48 hr by MTT assay; assay type: functional, cell-based
[2] = Inhibition of TNFalpha-induced NF-kappaB activity (unknown origin) expressed in HeLa cells cotreated with compound and 10 ng/ml TNF-alpha for 24 hr by reporter gene assay; assay type: cell-based, Homo sapiens
[3] = Homo sapiens, HeLa, 24 h, read-out: IC50

For `CC[C@H](CC[C@@H](C)[C@H]1CC[C@H]2[C@@H]3CC=C4C[C@@H](O)CC[C@]4(C)[C@H]3CC[C@]12C)C(C)C` [BETA-SITOSTEROL], the Activity [1] was “Dose-dependent effect” and the IC50 ([2]; hela) was “Not Active”.

In the case of `CC1=C(O)C(=O)C=C2C1=CC=C1[C@@]2(C)CC[C@@]2(C)[C@@H]3C[C@](C)(C(=O)O)CC[C@]3(C)CC[C@]12C` [CELASTROL], the Activity [1] is reported as “Dose-dependent effect” and the IC50 [2, 3] is reported as 0.72 µg/mL.

With `CC(C)[C@@H](C)/C=C/[C@@H](C)[C@H]1CC[C@H]2C3=CC=C4C[C@@H](O)CC[C@]4(C)[C@H]3CC[C@]12C` [ERGOSTEROL] the Activity [1] was “Dose-dependent effect” and the IC50 [2, 3] was 0.91 µg/mL.

With `CC[C@H](/C=C/[C@@H](C)[C@H]1CC[C@H]2[C@@H]3CC=C4C[C@@H](O)CC[C@]4(C)[C@H]3CC[C@]12C)C(C)C` [STIGMASTEROL] the Activity [1] was “Dose-dependent effect” and the IC50 ([2]; hela) was “Not Active”.
